“And” between values parts separate entries of the source, which are not always exact repeats. Identical values can stand only once. Like-named read-outs stand apart in the source and are kept apart here.
Columns and labels:
[1] = system: SK-N-MC neuroepithelioma cells; assay: 59Fe mobilization from prelabelled SK-N-MC neuroepithelioma cells; assay type: cell-based, human
Procedure: The effect of chelators on ^59Fe release from prelabelled cells was studied using standard procedures.^18 Cells were prelabelled with ^59Fe-transferrin (0.75 μM) for 3 h at 37° C. […] The overlying medium was then removed and placed into γ-counting tubes. The cells were removed from the petri dishes in 1 ml of BSS using a plastic spatula and transferred to a separate set of γ-counting tubes.
The ability of the compounds to mobilise ^59Fe from SK-N-MC neuroepithelioma cells was assessed after a 3 h labelling period with ^59Fe-Tf (0.75 μM) at 37° C. […]
DFO and 311 were used as internal standards.

[2] = system: SK-N-MC neuroepithelioma cells; assay: MTT cellular proliferation assay, SK-N-MC; assay type: cell-based, human
Procedure: […] […] After this incubation, 0.01 mL of MTT was added to each well and the plates incubated for 2 h at 37° C. The cells were then solubilised by adding 0.1 mL of 10% SDS-50% isobutanol in 0.01 M HCl and the plates then read at 570 nm on a scanning multiwell spectrophotometer (Titertek Multiscan; Beckman Instruments Inc, California). MTT colour formation was directly proportional to the number of viable cells.
The effect of the compounds on the proliferation of SK-N-MC neuroepithelioma cells was examined using the MTT assay (described above).
(§1) Dp2mT served as a negative control.

[3] = system: SK-N-MC neuroepithelioma cells; assay: 3H-thymidine incorporation by SK-N-MC cells; assay type: cell-based, human; details: 20 h incubation then 2 h label; Mean ± SD, 4 experiments
Procedure: (§2) After a 20 h incubation of the SK-N-MC cells with a selection of analogues, ^3H-thymidine, ^3H-leucine, or ^3H-uridine (1 μCi/ml) was added for 2 h at 37° C. The cells were detached from the 96 well plate using 1 mM EDTA in Ca(II)/Mg(II)-free PBS and collected and washed using a cell harvester (Tomtec Harvester 96, Linbrook, Queensland, Australia). Radioactivity was measured on a P-scintillation counter (LKB Wallace, Turku, Finland).

[4] = system: SK-N-MC neuroepithelioma cells; assay: 3H-leucine incorporation by SK-N-MC cells; assay type: cell-based, human; details: 20 h incubation then 2 h label; Mean ± SD, 4 experiments
Procedure: as §2

[5] = system: SK-N-MC neuroepithelioma cells; assay: 3H-uridine incorporation by SK-N-MC cells; assay type: cell-based, human; details: 20 h incubation then 2 h label; Mean ± SD, 3 experiments
Procedure: as §2

MRC-5 fibroblasts = assay: MTT cellular proliferation assay, MRC-5 fibroblasts; assay type: cell-based, human
Procedure: (§3) The final concentration of the compounds was 0.39-50 μM. […] […] After this incubation, 0.01 mL of MTT was added to each well and the plates incubated for 2 h at 37° C. The cells were then solubilised by adding 0.1 mL of 10% SDS-50% isobutanol in 0.01 M HCl and the plates then read at 570 nm on a scanning multiwell spectrophotometer (Titertek Multiscan; Beckman Instruments Inc, California). MTT colour formation was directly proportional to the number of viable cells.
The MRC-5 cell type is a normal human lung fibroblast cell strain that is mortal and senesces after a number of passages in vitro. The SK-N-MC neuroepithelioma cell type is immortal.
as §1

SK-Mel-28 melanoma cells = assay: MTT cellular proliferation assay, SK-Mel-28; assay type: cell-based, human
Procedure: as §3, §1
(§4) Dp2mT served as a negative control as the methyl group at the 2-position hinders Fe-chelation.

[6] = system: MCF-7 breast cancer cells; assay: MTT cellular proliferation assay, MCF-7; assay type: cell-based, human
Procedure: […] […] […] After this incubation, 0.01 mL of MTT was added to each well and the plates incubated for 2 h at 37° C. The cells were then solubilised by adding 0.1 mL of 10% SDS-50% isobutanol in 0.01 M HCl and the plates then read at 570 nm on a scanning multiwell spectrophotometer (Titertek Multiscan; Beckman Instruments Inc, California). MTT colour formation was directly proportional to the number of viable cells.
as §1, §4

H69AR lung cancer = assay: MTT cellular proliferation assay, H69AR; assay type: cell-based; details: Homo sapiens, H69AR, 0-50 μM, 72 h, 1 experiment
Procedure: as §3
(§5) At the end of the incubation period, cell density was determined by the MTT assay (described above).

IMR-32 Neuroblastoma = assay: MTT cellular proliferation assay, IMR-32; assay type: cell-based; details: Homo sapiens, IMR-32, 0-50 μM, 72 h, 1 experiment
Procedure: as §3, §5

HEP G2 Hepatoma = assay: MTT cellular proliferation assay, HEP G2; assay type: cell-based; details: Homo sapiens, HepG2, 0-50 μM, 72 h, 1 experiment
Procedure: as §3, §5

DU 145 prostate cancer = assay: MTT cellular proliferation assay, DU 145; assay type: cell-based; details: Homo sapiens, DU-145, 0-50 μM, 72 h, 2 experiments
Procedure: as §3, §5

NCI H2452 mesothelioma = assay: MTT cellular proliferation assay, NCI H2452; assay type: cell-based; details: Homo sapiens, NCI-H2452, 0-50 μM, 72 h, 3 experiments
Procedure: as §3, §5

[7] = system: SK-N-MC neuroepithelioma cells; assay: 59Fe uptake from 59Fe-transferrin by SK-N-MC neuroepithelioma cells; assay type: cell-based, human
Procedure: The cells were then placed on ice and washed four times with ice-cold Hank's balanced salt solution (BSS) to remove non-specifically bound ^59Fe-Tf. Cells were then incubated with the general protease, pronase (1 mg/ml), for 30 min at 4° C. to remove membrane-bound ^59Fe and Tf.
PCTH was used as an internal control.

Ndrg1 = Ndrg1 expression in MCF-7 cells (Western blotting); assay type: cell-based, human; details: 25 μM, 24 h, MCF-7 cells (FIG. 16)
Procedure: FIG. 16. […] The expression of Ndrg1 and β-actin protein levels were assessed by Western blotting.
MCF-7 cells were incubated for 24 h with a range of metal ion chelators. […] Dp2mT was used as a negative control, […]

GADD45 and WAF1 mRNA = assay: Northern blot of WAF1 and GADD45 mRNA expression in SK-N-MC cells; assay type: cell-based, human; details: DFO 100 μM, other chelators 25 μM, 20 h at 37° C. (FIG. 7)
Procedure: FIG. 7. […] Northern blotting was performed using standard procedures (see Example 6).
Northern blot analysis was performed by isolating total RNA using the Total RNA Isolation Reagent (Advanced Biotechnologies Ltd, Surrey, United Kingdom). The membranes were hybridised with probes specific for human WAF1, GADD45, and β-actin. The WAF1 probe consisted of a 1 kb fragment from pSXV (ATCC; Cat. No. 79928). The GADD45 probe consisted of a 760 bp fragment from human GADD45 cDNA cloned into pHu145B2 (kindly supplied by Dr. Albert Fornace, National Cancer Institute, NIH, Maryland). The β-actin probe consisted of a 1.4 kb fragment from human β-actin cDNA cloned into pBluescript SK− (ATCC; Cat. No. 37997).

[8] = Table 2, MTT assay, 90 h incubation, Mean ± SD, 4 experiments, read-out: IC50 Values of Chelators
[9] = Table 3, 0-25 μM, 72 h, MTT, mean ± SD, read-out: IC50 SK-N-MC neuroepithelioma
[10] = Table 3, normal cells, 72 h, MTT, read-out: IC50 MRC-5 fibroblasts
[11] = Table 3, 72 h, MTT, mean ± SD, read-out: IC50 MCF-7 breast cancer
[12] = Homo sapiens, MCF7, values given in Example 8 text, read-out: IC50, anti-proliferative activity in MCF-7 cells
[13] = Homo sapiens, MRC5, Example 4c, FIG. 6, read-out: IC50 values in fibroblasts
[14] = Homo sapiens, SK-N-MC, 90 h, Table 2, MTT assay, 90 h incubation, Mean ± SD, 4 experiments, read-out: IC50 Values of Chelators

2-pyridylketone 2-thiophenecarboxaldehyde hydrazone [PCTH]
cellular 59Fe released ([1]; chelator 1 μM, 3 h reincubation at 37° C. (FIG. 5A)): 10% | IC50 [2, 8]: 48 ± 4 µM | 3H-Thymidine Incorporation [3]: 64 ± 14 % Control | 3H-Leucine Incorporation [4]: 21 ± 6 % Control | 3H-Uridine Incorporation [5]: 43 ± 2 % Control

2-quinolinecarboxaldehyde 2-thiophenecarboxaldehyde hydrazone [QCTH]
IC50 [2, 8]: > 50 µM | 3H-Thymidine Incorporation [3]: 83 ± 6 % Control

O=C(NN=Cc1c(O)ccc2ccccc12)c1cccnc1 [311m, 2-hydroxy-1-naphthylaldehyde nicotinoyl hydrazone]
IC50 [2, 9]: 0.8 ± 0.2 µM | IC50 (MRC-5 fibroblasts; [10]): > 25 µM | IC50 (SK-Mel-28 melanoma cells; Table 3, 72 h, mean ± SD): 1.4 ± 0.4 µM | IC50 [6, 11]: 0.9 ± 0.4 µM

COc1cccc2c1C(=O)c1c(O)c3c(c(O)c1C2=O)C[C@@](O)(C(=O)CO)C[C@@H]3O[C@H]1C[C@H](N)[C@H](O)[C@H](C)O1 [Dox, doxorubicin]
IC50 ([2]; Homo sapiens, SK-N-MC, 72 h, Table 3, 0-25 μM, 72 h, MTT, mean ± SD, read-out: IC50 SK-N-MC neuroepithelioma): 0.02 µM | IC50 (SK-Mel-28 melanoma cells; Homo sapiens, SK-MEL-28, 72 h, Table 3, mean ± SD): 0.35 ± 0.09 µM | IC50 ([6]; Homo sapiens, MCF7, 72 h, Table 3, 72 h, MTT, mean ± SD, read-out: IC50 MCF-7 breast cancer): 0.6 ± 0.2 µM | IC50 (H69AR lung cancer): 0.39 µM | IC50 (IMR-32 Neuroblastoma): 0.01 µM | IC50 (HEP G2 Hepatoma): 2.61 µM | IC50 (DU 145 prostate cancer): 0.09 µM | IC50 (NCI H2452 mesothelioma): 0.17 µM

CN(N=C(c1ccccn1)c1ccccn1)C(N)=S [Dp2mT, di-2-pyridylketone 2-methyl-3-thiosemicarbazone]
prevention of 59Fe uptake from 59Fe-Tf ([7]; 25 μM, 3 h at 37° C. (FIG. 11B)): little effect | IC50 [2, 9]: > 25 µM | IC50 (MRC-5 fibroblasts; [10]): > 25 µM | IC50 (SK-Mel-28 melanoma cells; Table 3, 72 h, mean ± SD): > 25 µM | IC50 [6, 11]: > 25 µM | up-regulation of Ndrg1 (Ndrg1): no effect

O=C(O)CN(CCN(CC(=O)O)CC(=O)O)CC(=O)O [EDTA, ethylenediamine tetraacetic acid]
IC50 [6, 12]: > 250 µM | up-regulation of Ndrg1 (Ndrg1): no effect

Cc1c(O)c(=O)ccn1C [L1, deferiprone]
IC50 [6, 12]: 180 µM | up-regulation of Ndrg1 (Ndrg1): no effect

O=C(NN=C(c1ccccn1)c1ccccn1)c1cccc(Br)c1 [PCBBH, 2-pyridylketone 3-bromobenzoyl hydrazone]
IC50 [2, 8]: 40 ± 12 µM | GADD45 and WAF1 mRNA expression (GADD45 and WAF1 mRNA): up-regulation

O=C(NN=C(c1ccccn1)c1ccccn1)c1ccccc1 [PCBH, 2-pyridylketone benzoyl hydrazone]
IC50 [2, 8]: 46 ± 7 µM | 3H-Thymidine Incorporation [3]: 72 ± 16 % Control | 3H-Leucine Incorporation [4]: 30 ± 13 % Control | 3H-Uridine Incorporation [5]: 31 ± 9 % Control | GADD45 and WAF1 mRNA expression (GADD45 and WAF1 mRNA): little effect

O=C(NN=C(c1ccccn1)c1ccccn1)c1cccc(Br)c1 [PKBBH, di-2-pyridylketone 3-bromobenzoyl hydrazone]
IC50 [2, 8]: 1 ± 1 µM | IC50 (MRC-5 fibroblasts; [13]): 8 µM | 3H-Thymidine Incorporation [3]: 0.02 % Control and 0.02 ± 0.01 % Control | 3H-Leucine Incorporation [4]: 8 ± 1 % Control | 3H-Uridine Incorporation [5]: 3 ± 1 % Control | GADD45 and WAF1 mRNA expression (GADD45 and WAF1 mRNA): pronounced effect

O=C(NN=C(c1ccccn1)c1ccccn1)c1ccccc1 [PKBH, di-2-pyridylketone benzoyl hydrazone]
59Fe mobilisation as a function of concentration ([1]; 0.5-50 μM, 3 h, PCTH internal control (FIG. 5A)): more effective than PCTH | prevention of 59Fe uptake as a function of concentration ([7]; 0.5-50 μM, 3 h, PCTH internal control (FIG. 5B)): higher efficacy than the control PCTH | IC50 [2, 8]: 3 ± 1 µM | IC50 (MRC-5 fibroblasts; [13]): 11 µM | 3H-Thymidine Incorporation [3]: 0.03 ± 0.01 % Control | 3H-Leucine Incorporation [4]: 21 ± 2 % Control | 3H-Uridine Incorporation [5]: 5 ± 1 % Control | GADD45 and WAF1 mRNA expression (GADD45 and WAF1 mRNA): pronounced effect

Nc1ccc(C(=O)NN=Cc2ccc3ccccc3n2)cc1 [QCAH, 2-quinolinecarboxaldehyde 4-aminobenzoyl hydrazone]
IC50 [2, 14]: > 50 µM | 3H-Thymidine Incorporation [3]: 43 ± 2 % Control

O=C(NN=Cc1ccc2ccccc2n1)c1cccc(Br)c1 [QCBBH, 2-quinolinecarboxaldehyde 3-bromobenzoyl hydrazone]
IC50 [2, 14]: 49 ± 3 µM | 3H-Thymidine Incorporation [3]: 81 ± 10 % Control

O=C(NN=Cc1ccc2ccccc2n1)c1ccccc1 [QCBH, 2-quinolinecarboxaldehyde benzoyl hydrazone]
IC50 [2, 14]: 50 ± 1 µM | 3H-Thymidine Incorporation [3]: 64 ± 5 % Control

O=C(NN=Cc1ccc2ccccc2n1)c1ccc(O)cc1 [QCHH, 2-quinolinecarboxaldehyde 4-hydroxybenzoyl hydrazone]
IC50 [2, 14]: > 50 µM | 3H-Thymidine Incorporation [3]: 41 ± 2 % Control

O=C(NN=Cc1ccc2ccccc2n1)c1ccncc1 [QCIH, 2-quinolinecarboxaldehyde isonicotinoyl hydrazone]
59Fe mobilisation from prelabelled cells ([1]; DFO 100 μM, other chelators 50 μM, 3 h (FIG. 3)): comparable cellular ^59Fe mobilisation to PCIH | IC50 [2, 14]: 49 ± 3 µM | 3H-Thymidine Incorporation [3]: 77 ± 9.5 % Control

c1ccc(-c2ccccn2)nc1 [dipyridyl]
IC50 ([6]; Homo sapiens, MCF7, read-out: IC50, anti-proliferative activity in MCF-7 cells): > 250 µM | up-regulation of Ndrg1 (Ndrg1): no effect

CC(C)(S)[C@@H](N)C(=O)O [penicillamine]
up-regulation of Ndrg1 (Ndrg1): no effect
